Assay [1] concerns human lung cancer strain NCI-H441. Type of assay: cell-based. An outline of the steps:
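Proliferation was scored by […] measured after the reagent was added to cultures kept at 37°C in 5% carbon dioxide.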

Assay [2] deals with GDP-bound NRAS wild-type protein (Homo sapiens, UniProt P01111). In words: Binding to NRAS by surface plasmon resonance (SPR), KD and KD ratio to KRAS. The conditions noted are these: ratio of KD for GDP-bound NRAS wild-type protein to KD for KRAS. The essentials:
(§1)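 Single-cycle kinetics on GDP-loaded biotin-Avi RAS captured to ~100–300 RU; 75 s ascending injections, 100 µL/min, 30°C. HBS pH 7.4 + 10 mM MgCl2/10 µM GDP/4% DMSO. 1:1 fit, KD.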
In general terms: Surface plasmon resonance follows binding to a sensor surface in real time, without labels.

For assay [3], the target named is HRAS wild-type protein (Homo sapiens, UniProt P01112). The experiment in a line: Binding to HRAS by surface plasmon resonance (SPR), KD and KD ratio to KRAS. The conditions noted are these: ratio of KD for HRAS wild-type protein to KD for KRAS. The essentials: as §1

This is an account of results in patent EP4603105A1, “PHARMACEUTICAL COMPOSITION CONTAINING CYCLIC COMPOUND HAVING SELECTIVE KRAS INHIBITORY EFFECT AGAINST HRAS AND NRAS” (CHUGAI SEIYAKU KABUSHIKI KAISHA, priority 2022, dated 2024).

SMILES strings stand for the structures.

HRAS wild-type protein, sequence (P01112 whole entry): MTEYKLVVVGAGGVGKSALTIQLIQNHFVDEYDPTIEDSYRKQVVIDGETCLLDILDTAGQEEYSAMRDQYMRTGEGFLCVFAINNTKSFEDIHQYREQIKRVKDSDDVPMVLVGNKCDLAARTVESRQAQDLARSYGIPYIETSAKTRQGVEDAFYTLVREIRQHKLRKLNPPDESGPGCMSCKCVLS
GDP-bound NRAS wild-type protein, sequence (P01111 whole entry): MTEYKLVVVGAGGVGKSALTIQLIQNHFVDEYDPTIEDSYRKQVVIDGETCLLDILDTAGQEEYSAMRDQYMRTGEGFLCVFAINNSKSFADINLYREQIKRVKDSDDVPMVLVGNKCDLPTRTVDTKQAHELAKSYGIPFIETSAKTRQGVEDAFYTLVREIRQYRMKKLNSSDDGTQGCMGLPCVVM

As to `CCC[C@H]1C(=O)N[C@@H]([C@@H](C)CC)C(=O)N(C2CC2)CC(=O)N(C)[C@H]2C/C=C\CCN(C2=O)[C@@H](Cc2ccc(C(F)(F)F)cc2)C(=O)N(C)CC(=O)N[C@@H](CCc2cc(F)c(C(F)(F)F)c(F)c2)C(=O)N2C[C@H](OCC)C[C@H]2C(=O)NC2(CC(C)(C)C2)C(=O)N(C)[C@@H](CC2CC2)C(=O)N(C)[C@H](C(=O)N(C)C)CC(=O)N1C` [PP2813], the IC50 (usually the midpoint of a concentration-inhibition curve) in assay [1] was determined as 86 nM. Also, in assay [2], the “NRAS /KRAS” value was “AA (a compound having 20 or more is denoted as AA)”. Moreover, the “HRAS /KRAS” value in assay [3] was “A (a compound having 10 or more and less than 20 is denoted as A)”.

Take `CCC[C@H]1C(=O)N[C@@H]([C@@H](C)CC)C(=O)N(C2CC2)CC(=O)N(C)[C@H]2C/C=C\CCN(C2=O)[C@@H](Cc2ccc(C(F)(F)F)cc2)C(=O)N(C)CC(=O)N[C@@H](CCc2ccc(C(F)(F)F)c(OC)c2)C(=O)N2C[C@H](OCC)C[C@H]2C(=O)NC2(CC(C)(C)C2)C(=O)N(C)[C@@H](CC2CC2)C(=O)N(C)[C@H](C(=O)N(C)C)CC(=O)N1C` [PP2815]: the IC50 in assay [1] turned out to be 188 nM. Also, the “NRAS /KRAS” value in assay [2] is “A (a compound having 10 or more and less than 20 is denoted as A)”. Also, in assay [3], the “HRAS /KRAS” value was “A (a compound having 10 or more and less than 20 is denoted as A)”.

As to `CCC[C@H]1C(=O)N[C@@H]([C@@H](C)CC)C(=O)N(C2CC2)CC(=O)N(C)[C@H]2C/C=C\CCN(C2=O)[C@@H](Cc2ccc(C(F)(F)F)cc2)C(=O)N(C)CC(=O)N[C@@H](CCc2ccc(Cl)c(Cl)c2)C(=O)N2C[C@H](OCC)C[C@H]2C(=O)NC2(CC(C)(C)C2)C(=O)N(C)[C@@H](CC2CC2)C(=O)N(C)[C@H](C(=O)N(C)C)CC(=O)N1C` [PP2817], 55.2 nM corresponded to half-maximal inhibition in assay [1] (IC50). In addition, the “NRAS /KRAS” value in assay [2] is “A (a compound having 10 or more and less than 20 is denoted as A)”. For the same molecule, the “HRAS /KRAS” value in assay [3] is “A (a compound having 10 or more and less than 20 is denoted as A)”.

With `CCC(CC)[C@H]1C(=O)N(C)[C@H](C(=O)N(C)C)CC(=O)N(C)[C@@H](COC)C(=O)N[C@@H]([C@@H](C)CC)C(=O)N(C)CC(=O)N(C)[C@H]2C/C=C\CCN(C2=O)[C@@H](Cc2ccc(C)cc2)C(=O)N(C)CC(=O)N[C@@H](CCc2ccc(Cl)c(Cl)c2)C(=O)N2C[C@H](OC3CCCC3)C[C@H]2C(=O)N(C)C2(CC(C)(C)C2)C(=O)N1C` [PP2818], the IC50 in assay [1] worked out at 77.1 nM. The “NRAS /KRAS” value in assay [2] was “A (a compound having 10 or more and less than 20 is denoted as A)”. Also, in assay [3], the “HRAS /KRAS” value is “A (a compound having 10 or more and less than 20 is denoted as A)”.

As to `CCC[C@H]1C(=O)N[C@@H]([C@@H](C)CC)C(=O)N(C2CC2)CC(=O)N(C)[C@H]2C/C=C\CCN(C2=O)[C@@H](Cc2ccc(C(F)(F)F)cc2)C(=O)N(C)CC(=O)N[C@@H](CCc2ccc(Cl)c(Cl)c2)C(=O)N2C[C@H](OCC)C[C@H]2C(=O)NC2(CC(C)(C)C2)C(=O)N(C)[C@@H](CC2CCC2)C(=O)N(C)[C@H](C(=O)N(C)C)CC(=O)N1C` [PP2819], in assay [1], the IC50 was found to be 102 nM. Moreover, the “NRAS /KRAS” value in assay [2] is “A (a compound having 10 or more and less than 20 is denoted as A)”. Further, the “HRAS /KRAS” value in assay [3] is “A (a compound having 10 or more and less than 20 is denoted as A)”.

As to `CCO[C@@H]1C[C@H]2C(=O)NC3(CC(C)(C)C3)C(=O)N(C)[C@@H](CC3CCC3)C(=O)N(C)[C@H](C(=O)N(C)C)CC(=O)N(C)[C@@H](COC)C(=O)N[C@@H]([C@@H](C)CC)C(=O)N(C3CC3)CC(=O)N(C)[C@H]3C/C=C\CCN(C3=O)[C@@H](Cc3ccc(C(F)(F)F)cc3)C(=O)N(C)CC(=O)N[C@@H](CCc3ccc(Cl)c(Cl)c3)C(=O)N2C1` [PP2821], it took 90.4 nM to reach half-maximal inhibition in assay [1] (IC50). Further, the “NRAS /KRAS” value in assay [2] was “A (a compound having 10 or more and less than 20 is denoted as A)”. Besides, in assay [3], the “HRAS /KRAS” value was “A (a compound having 10 or more and less than 20 is denoted as A)”.

`CCO[C@@H]1C[C@H]2C(=O)NC3(CC(C)(C)C3)C(=O)N(C)[C@@H](C3CCCC3)C(=O)N(C)[C@H](C(=O)N(C)CC)CC(=O)N(C)[C@@H](CC)C(=O)N[C@@H]([C@@H](C)CC)C(=O)N(C)CC(=O)N(C)[C@H]3C/C=C\CCN(C3=O)[C@@H](Cc3ccc(C(F)(F)F)cc3)C(=O)N(C)CC(=O)N[C@@H](CCc3ccc(Cl)c(Cl)c3)C(=O)N2C1` [PP2822] showed an IC50 in assay [1] of 14.1 nM. Besides, the “NRAS /KRAS” value in assay [2] was “A (a compound having 10 or more and less than 20 is denoted as A)”. Besides, the “HRAS /KRAS” value in assay [3] is “A (a compound having 10 or more and less than 20 is denoted as A)”.

`CCO[C@@H]1C[C@H]2C(=O)NC3(CC(C)(C)C3)C(=O)N(C)[C@@H](C3CCCC3)C(=O)N(C)[C@H](C(=O)N(C)CC)CC(=O)N(C)[C@@H](CC)C(=O)N[C@@H]([C@@H](C)CC)C(=O)N(C)CC(=O)N(C)[C@H]3C/C=C\CCN(C3=O)[C@@H](Cc3ccc(C(F)(F)F)cc3)C(=O)N(C)CC(=O)N[C@@H](CCc3ccc(C(F)(F)F)c(Cl)c3)C(=O)N2C1` [PP2823] came in with an IC50 in assay [1] of 7.6 nM. Moreover, the “NRAS /KRAS” value in assay [2] was “A (a compound having 10 or more and less than 20 is denoted as A)”. In addition, in assay [3], the “HRAS /KRAS” value is “A (a compound having 10 or more and less than 20 is denoted as A)”.

With `CCO[C@@H]1C[C@H]2C(=O)NC3(CCC3)C(=O)N(C)[C@@H](C3CCCC3)C(=O)N(C)[C@H](C(=O)N(C)CC)CC(=O)N(C)[C@@H](CC3CCC3)C(=O)N[C@@H]([C@@H](C)CC)C(=O)N(C)CC(=O)N(C)[C@H]3C/C=C\CCN(C3=O)[C@@H](Cc3ccc(C(F)(F)F)cc3)C(=O)N(C)CC(=O)N[C@@H](CCc3ccc(C(F)(F)F)c(OC)c3)C(=O)N2C1` [PP2825], the IC50 in assay [1] was 7.6 nM. In addition, the “NRAS /KRAS” value in assay [2] was “A (a compound having 10 or more and less than 20 is denoted as A)”. The “HRAS /KRAS” value in assay [3] was “B (a compound having 3 or more and less than 10 is denoted as B)”.

Regarding `CCO[C@@H]1C[C@H]2C(=O)NC3(CCC3)C(=O)N(C)[C@@H](C3CCCC3)C(=O)N(C)[C@H](C(=O)N(C)CC)CC(=O)N(C)[C@@H](CC3CCC3)C(=O)N[C@@H]([C@@H](C)CC)C(=O)N(C)CC(=O)N(C)[C@H]3C/C=C\CCN(C3=O)[C@@H](Cc3ccc(C(F)(F)F)cc3)C(=O)N(C)CC(=O)N[C@@H](CCc3ccc(C(F)(F)F)c(Cl)c3)C(=O)N2C1` [PP2826], the IC50 in assay [1] came out at 8.6 nM. In assay [2], the “NRAS /KRAS” value is “A (a compound having 10 or more and less than 20 is denoted as A)”. Also, the “HRAS /KRAS” value in assay [3] is “A (a compound having 10 or more and less than 20 is denoted as A)”.

`CCO[C@@H]1C[C@H]2C(=O)NC3(CC(C)(C)C3)C(=O)N(C)[C@@H](C3CCCC3)C(=O)N(C)[C@H](C(=O)N(C)CC)CC(=O)N(C)[C@@H](CC(C)C)C(=O)N[C@@H]([C@@H](C)CC)C(=O)N(C)CC(=O)N(C)[C@H]3C/C=C\CCN(C3=O)[C@@H](Cc3ccc(C(F)F)cc3)C(=O)N(C)CC(=O)N[C@@H](CCc3ccc(Cl)c(Cl)c3)C(=O)N2C1` [PP2827]: the IC50 in assay [1] is 21 nM. Further, the “NRAS /KRAS” value in assay [2] is “A (a compound having 10 or more and less than 20 is denoted as A)”. Also, the “HRAS /KRAS” value in assay [3] was “B (a compound having 3 or more and less than 10 is denoted as B)”.

`CCO[C@@H]1C[C@H]2C(=O)NC3(CC(C)(C)C3)C(=O)N(C)[C@@H](C3CCCC3)C(=O)N(C)[C@H](C(=O)N(C)CC)CC(=O)N(C)[C@@H](CC(C)C)C(=O)N[C@@H]([C@@H](C)CC)C(=O)N(C)CC(=O)N(C)[C@H]3C/C=C\CCN(C3=O)[C@@H](Cc3ccc(C(F)F)cc3)C(=O)N(C)CC(=O)N[C@@H](CCc3ccc(C(F)(F)F)c(OC)c3)C(=O)N2C1` [PP2828] registered an IC50 in assay [1] of 5 nM. In addition, the “NRAS /KRAS” value in assay [2] is “A (a compound having 10 or more and less than 20 is denoted as A)”. Also, the “HRAS /KRAS” value in assay [3] is “A (a compound having 10 or more and less than 20 is denoted as A)”.

Molecule `CCO[C@@H]1C[C@H]2C(=O)NC3(CC(C)(C)C3)C(=O)N(C)[C@@H](C3CCCC3)C(=O)N(C)[C@H](C(=O)N(C)CC)CC(=O)N(C)[C@@H](CC(C)C)C(=O)N[C@@H]([C@@H](C)CC)C(=O)N(C)CC(=O)N(C)[C@H]3C/C=C\CCN(C3=O)[C@@H](Cc3ccc(C(F)F)cc3)C(=O)N(C)CC(=O)N[C@@H](CCc3ccc(C(F)(F)F)c(Cl)c3)C(=O)N2C1` [PP2829] gave an IC50 in assay [1] of 7.9 nM. Also, in assay [2], the “NRAS /KRAS” value was “A (a compound having 10 or more and less than 20 is denoted as A)”. For the same molecule, the “HRAS /KRAS” value in assay [3] is “A (a compound having 10 or more and less than 20 is denoted as A)”.

Take `CCCOC[C@H]1C(=O)N[C@@H]([C@@H](C)CC)C(=O)N(C)CC(=O)N(C)[C@H]2C/C=C\CCN(C2=O)[C@@H](Cc2ccc(C(F)(F)F)cc2)C(=O)N(C)CC(=O)N[C@@H](CCc2ccc(C(F)(F)F)c(Cl)c2)C(=O)N2C[C@H](OCC)C[C@H]2C(=O)NC2(CCC2)C(=O)N(C)[C@@H](C2CCCC2)C(=O)N(C)[C@H](C(=O)N(C)CCC)CC(=O)N1C` [PP2831]: inhibition in assay [1] was half-maximal at 14.1 nM (IC50). Further, the “NRAS /KRAS” value in assay [2] is “A (a compound having 10 or more and less than 20 is denoted as A)”. Also, in assay [3], the “HRAS /KRAS” value was “A (a compound having 10 or more and less than 20 is denoted as A)”.

In assay [1], `CCO[C@@H]1C[C@H]2C(=O)NC3(CC(C)(C)C3)C(=O)N(C)[C@@H](C3CCCC3)C(=O)N(C)[C@H](C(=O)N(C)C)CC(=O)N(C)[C@@H](CC(F)(F)F)C(=O)N[C@@H]([C@@H](C)CC)C(=O)N(C)CC(=O)N(C)[C@H]3C/C=C\CCN(C3=O)[C@@H](Cc3ccc(C(F)(F)F)cc3)C(=O)N(C)CC(=O)N[C@@H](CCc3ccc(Cl)c(Cl)c3)C(=O)N2C1` [PP2832] yielded an IC50 of 4.8 nM. The “NRAS /KRAS” value in assay [2] was “A (a compound having 10 or more and less than 20 is denoted as A)”. Further, the “HRAS /KRAS” value in assay [3] was “A (a compound having 10 or more and less than 20 is denoted as A)”.
